Measured values reported in publication PMC8880129, “Plant- and Bacteria-Derived Compounds with Anti-Philasterides dicentrarchi Activity” (Pathogens, 2022).
Values joined by “and” are separate entries in the source; they are usually repeats but may differ in a detail not shown here. Identical values can stand only once. Like-named read-outs stand apart in the source and are kept apart here.

How the values were obtained:
Saprolegnia delica = system: Saprolegnia delica; parameters: method as in PMID 32154278; details: 0.1 mM; cited from earlier work
Gyrodactylus kobayashii = system: Gyrodactylus kobayashii; parameters: method as in doi:10.1016/j.aquaculture.2021.736372; details: exposure to 2.0 μg/mL; cited from earlier work
[1] = Toxicity to EPC cell line, MTT assay; type: cell-based, fish; details: fish, compound at its GI50 (24 h), MTT, read-out: EPC Cell Viability (%) Mean ± SD; for viability at 3 h: 3 h incubation; for viability at 24 h: 24 h incubation
Description: (§1) We used the Epithelioma Papulosum Cyprini (EPC) cell line, acquired from the American Type Culture Collection (ATCC®, Manassas, VA, USA), as a control for toxicity. The cell line, kindly provided by Doctors Pereira-Dopazo and Bandin from the Aquaculture Institute of the University of Santiago de Coompostela, was cultured in MEM medium equilibrated with Hanks’ balanced salts (Gibco, Thermo Fischer Sci., Waltham, MA, USA) supplemented with 10% foetal bovine serum and 10 mL/L of 100X antibiotic–antimycotic solution. Cells were maintained subconfluent at 25 °C in a cell culture incubator and used when the confluence reached 75%.
(§2) Cell viability was then estimated by the MTT (3-(4,5-dimethylthiazol-2-yl)-2,5-diphenyl tetrazolium bromide) assay, as previously described, with minor modifications. Briefly, 100 μL of the MTT solution (1 mg/mL in phosphate-buffered saline; pH 7.2) was added to each well, and plates were incubated at 25 °C for 4 h. The yellow tetrazolium salt of MTT is reduced by mitochondrial dehydrogenases in metabolically active cells to form insoluble purple formazan crystals, which are then dissolved by the addition of DMSO (50 μL/well). Prior to the addition of MTT or DMSO, the plates were washed, and the supernatant was removed. The absorbance was measured at 540 nm in a microplate reader (Multiskan™, Thermo Fischer Sci., Waltham, MA, USA), and the relative cell viability was expressed as the mean percentage of viable cells relative to untreated cells.
(§3) In the viability assay, the possible effect of DMSO was evaluated for each compound by the inclusion of three replicate wells with MEM medium and the same DMSO concentration as in the medium. […] Control cells with only MEM were also included in the assay.

EPC cells = experiment: Toxicity to EPC cell line, MTT assay; type: cell-based, fish; details: 24 h incubation, compound at its GI50 (24 h)
Description: as §1, §2, §3

[2] = system: Philasterides dicentrarchi; experiment: microbe, parasite or virus in culture; details: for Ciliate Mortality 3 h (%) / parasites killed after 24 h: 100 μM, culture medium; for Ciliate Mortality 3 h (%): mean ± SD of three replicates; for mortality at 100 µM / GI50 / inhibition at 100 µM: Philasterides dicentrarchi; for Ciliate Mortality 3 h (%) / mortality at 100 µM: 3 h; for mortality at 100 µM: read-out: Ciliate Mortality 3 h (%), 100 μM, 3 h, culture medium, mean ± SD of three replicates; for inhibition at 100 µM: read-out: Growth Inhibition 24 h (%), 100 μM, 24 h, culture medium, mean ± SD of three replicates; for effect on the ciliate (lysis, movement): microscopy observation
Description: P. dicentrarchi (isolate I1), obtained from an outbreak of scuticociliatosis in cultured turbot in Galicia, was routinely cultured at 18 °C in complete sterile L15 medium (Leibovitz, PAA Laboratories GmbH, 1% salinity, pH 7.2) containing 90 mg/L each of adenosine, cytidine, and uridine, 150 mg/L of guanosine, 5 g/L of glucose, 400 mg/L of L-α-phosphatidylcholine, 200 mg/L of Tween 80, 10% of heat-inactivated foetal bovine serum (FBS), and 10 mL/L of 100X antibiotic–antimycotic solution (100 units/mL of penicillin G, 0.1 mg/mL of streptomycin sulphate and 0.25 mg/mL of amphotericin B), as previously described. Alternatively, ciliates were cultured in seawater with autoclaved marine bacteria (10^6 cells/mL) supplied as food at 21 °C. The ciliates were cultured under normoxic conditions in tissue culture flasks fitted with vented caps that enabled aeration of the culture medium.
We tested the toxicity to P. dicentrarchi of 26 compounds of natural origin (Table 1). The compounds were prepared in 10 mM stock solutions in dimethyl sulfoxide (DMSO) and maintained at −20 °C until use. In addition, the Pseudomonas H6 lipopeptide surfactant (PS) was prepared, lyophilised and stored at −20 °C [37]. A stock solution of PS was prepared in distilled water (1000 ppm) and diluted in culture medium or seawater at the final concentrations used in each assay and sterile filtered (through 0.2 µm filters) before being added to the parasites or EPC cells.
The anticiliate activity was assayed as previously described, with minor modifications. Ciliates were concentrated by centrifugation at 650× g for 5 min and resuspended in a medium at the concentration required for the assays. All experiments were carried out in triplicate. Wells containing ciliates in a culture medium or seawater without the test compounds were assayed as negative controls. To rule out any possible effects of the solvent (DMSO), triplicate wells with a culture medium or seawater containing the highest concentration of DMSO used (up to 1%) were also included. […] In these assays, the compounds were diluted in 1 mL of culture medium or seawater and added to the wells of 24-well sterile culture plates containing 2.5 × 10^4 ciliates per well, at final concentrations of […], 6.25, 12.5, 25, 50, and 100 µM in culture medium. The effects of the compounds on the motility and morphology of the ciliates were monitored periodically (at 30 min, 1, 2, 3, 24, and 48 h) under an inverted optical microscope. Ciliates were considered dead when they lysed and were not motile. The results obtained are expressed as percentage mortality for each experimental group. To estimate the total number of ciliates per well, the ciliates were inactivated by adding 0.25% glutaraldehyde and counted in a haemocytometer under an optical microscope. The lowest dose of the selected compounds resulting in 100% ciliate mortality (LC100) was assessed at 1, 2, and 3 h after incubation of parasites with sample dilutions (from 0 to 100 μg/mL, in 10 μg intervals). The concentration that inhibited 50% of ciliate growth (GI50), in comparison with the control group, was calculated with Excel software (Microsoft Office; Microsoft, Redmond, WA, USA) by plotting the dose-response data (log dose-per cent of growth inhibition) and applying linear regression (y = mx + b) for data fitting. The values were then calculated from the equation log GI50 = (50 − b)/m, where m is the slope y1 − y2/x1 − x2, and b is the intercept of the line.

[3] = system: Philasterides dicentrarchi; experiment: Anticiliate activity, ciliates maintained in seawater (LC100, LC50); type: cell-based; details: 3 h incubation
Description: All experiments were carried out in triplicate.

goldfish = system: goldfish; parameters: method as in doi:10.1016/j.aquaculture.2021.736372; details: cited from earlier work
Amyloodinium ocellatum = system: Amyloodinium ocellatum; parameters: method as in PMID 32154278; details: 24 h incubation period; cited from earlier work
S. parasitica = system: S. parasitica; parameters: method as in PMID 32154278; details: 0.1 mM; cited from earlier work
rainbow trout = system: rainbow trout; parameters: method as in PMID 17979099; details: 100 to 2000 ppm in the diet for four weeks; cited from earlier work
[4] = 24 h, read-out: GI50 24 h (compound concentration that inhibited 50% of parasite growth)
[5] = 48 h, read-out: GI50 48 h (compound concentration that inhibited 50% of parasite growth)

Row | SMILES | growth of Saprolegnia delica (Saprolegnia delica) | time to complete death of Gyrodactylus kobayashii (Gyrodactylus kobayashii) [min] | viability at 3 h [1] [%] | viability at 24 h [1] [%] | EPC cells killed (EPC cells) [%] | Ciliate Mortality 3 h (%) [2] [%] | parasites killed after 24 h ([2]; 24 h) | mortality at 100 µM [2] [%] | GI50 [2, 4] [µM] | GI50 ([2]; 24 h, read-out: GI50 24 h expressed in μg/mL) [µg/mL] | inhibition at 100 µM ([2]; 24 h) [%] | GI50 [2, 5] [µM] | effect on the ciliate (lysis, movement) [2] | LC100 (lowest concentration resulting in 100% ciliate mortality) [3] [µM] | concentration toxic to goldfish (goldfish) | doses inhibiting dinospore motility (Amyloodinium ocellatum) | radial growth of S. parasitica (S. parasitica) | toxic effects of administration in the diet (rainbow trout)
1 | CC1=CC(=O)c2c(O)cccc2C1=O [Plumbagin] | inhibiting | ≤ 45 | 78.7 ± 1.4 | 74.2 ± 3.94 | 26 | 100 | killed all the parasites | > 90 | 12.9 ± 1.16 | 2.42 | 100 | 9.65 ± 0.67 | inhibited the ciliate movement, but it did not cause cell lysis for several hours | 30 | higher than 0.5 mg/L | – | – | –
2 | C[C@H]1CC[C@]2(NC1)O[C@H]1C[C@H]3[C@@H]4CC[C@H]5C[C@@H](O[C@@H]6O[C@H](CO)[C@H](O[C@@H]7O[C@H](CO)[C@@H](O)[C@H](O[C@@H]8OC[C@@H](O)[C@H](O)[C@H]8O)[C@H]7O[C@@H]7O[C@H](CO)[C@@H](O)[C@H](O)[C@H]7O)[C@H](O)[C@H]6O)CC[C@]5(C)[C@H]4CC[C@]3(C)[C@H]1[C@@H]2C [Tomatine] | inhibited | – | 63 ± 6.82 | 57.6 ± 7.7 | 43 | 93.33 ± 2.31 | killed all the parasites | > 90 | 10.1 ± 1.27 | – | 100 | 8.51 ± 0.2 | very quick lysis of the ciliate | 10 | – | 6.25–50 μg/mL and 0.006–0.05 mM | inhibited | did not have toxic effects
